Measurements as given in patent US8288398B2, “Antiproliferative pyrimidyl, fused pyrimidyl and pyrimidyl hydrazones” (Merck Serono SA, priority 2005, dated 2012).

Tests used:
Type in all cases: cell-based
[1] = tested on: Colon cancer (C26, murine) cells; assay: Tumor cell proliferation assay (ATP-lite), C26; details: Mus musculus, 96 h, inhibition of tumor cell growth by 50%, 4 days incubation, ATP-lite readout
Method: (§1) Assay 1: Tumor Cell Proliferation Assay:
(§2) Colon cancer (C26, murine), pancreatic cancer (MiaPaCa-2, human) cells were plated in 96-well white plates (Cat. No. 3917, Corning, Inc.) at 2.5×10^3 cells/well and cultured overnight at 37° C. in 5% CO2 in DMEM containing 10% FCS. Inhibitors were serially diluted in 100% DMSO and subsequently added to cells to reach a final concentration of 0.25% DMSO. Cell plates were incubated for an additional 4 days at 37° C. and 5% CO2 and cell proliferation was quantitated using the ATP-lite cell proliferation kit (Cat. No. 6016943, Perkin Elmer).
(§3) The ATPlite kit quantifies the ATP released from lysed cells by the generation of light caused by the reaction of the released ATP with the Luciferase and D-Luciferin contained in the kit. After the 4th day of incubation, the media is removed from the cell plates and replaced with 100 μL of PBS followed by 50 μL of the lysis solution. The plates are then shaken for 5 minutes on an orbital shaker followed by the addition of 50 μL of substrate solution. The plates are shaken for an additional 5 minutes followed by dark adaptation for 10 minutes and finally read on a Victor^3 V plate reader (1 second/well, Cat. No. 1420-041, Perkin Elmer).
(§4) Columns 2-3 show the concentration of compounds required to inhibit the growth of tumor cells by 50% (IC50 in μM).

[2] = tested on: pancreatic cancer (MiaPaCa-2, human) cells; assay: Tumor cell proliferation assay (ATP-lite), MiaPaCa-2; details: MIA PaCa-2, 96 h; inhibition of tumor cell growth by 50%; MiaPaCa-2 human pancreatic cancer cells; 4 days incubation; ATP-lite readout
Method: as §1, §2, §3, §4

[3] = tested on: Human umbilical vein endothelial cells (HUVEC); assay: Endothelial tube formation assay; details: 50% reduction in total endothelial tube length, HUVEC on Matrigel, overnight culture
Method: Assay 2: Endothelial Tube Formation Assay
Human umbilical vein endothelial cells (HUVEC) (Cascade Biologics #C-003-5C) were plated into 96-well black clear-bottom microplates (Cat. No. 3603, Corning, Inc.) containing 50 uL/well of BD Matrigel Basement Membrane Matrix (BD Biosciences #354234) at 7.5×10^3 cells/well. Inhibitors were serially diluted in 100% DMSO and subsequently added to cells to reach a final concentration of 0.5% DMSO and the plates cultured overnight at 37° C., 5% CO2 in (EGM™-2 MV) (Cambrex #CC-3202). […] Cell plates were incubated in the dark at 37° C., 5% CO2 for 10 minutes and then immediately imaged and quantitated on the Discovery—1 automated microscope (Molecular Devices Corp.) to determine the total endothelial tube length. The total endothelial tube length is calculated using the Angiogenesis image algorithm supplied with the MetaMorph software package (Molecular Devices Corp). […] The binary image is then analyzed to remove objects that are not part of the endothelial tube network, such as cell clumps or debris. Finally, the corrected binary image is processed to reduce the tubes to single pixel width from which the total tube length is calculated. […]

Row | Structure (SMILES) | IC50 [1] | IC50 [2] | IC50 [3]
1 | CC(=NN(C)c1nc(C)nc2ccccc12)c1ccc(C)cc1 [Compound 7, N-Methyl-N-(2-methyl-quinazolin-4-yl)-N-(1-p-tolyl-ethylidene)-hydrazine] | < 1000 nM | < 1000 nM | < 1000 nM
2 | CC(=NNc1cc(-c2ccccc2F)nc(C)n1)c1ccc(C)cc1 [Compound 27, N-[6-(2-Fluoro-phenyl)-2-methyl-pyrimidin-4-yl]-N′-[1-p-tolyl-ethylidene]-hydrazine] | < 1000 nM | < 1000 nM | –
3 | CC(=NNc1cc(-c2ccccc2N2CCOCC2)nc(C)n1)c1ccc(C)cc1 [Compound 33, N-[2-Methyl-6-(2-morpholin-4-yl-phenyl)-pyrimidin-4-yl]-N′-[1-p-tolyl-ethylidene]-hydrazine] | 1000 to 15000 nM | < 1000 nM | –
4 | COc1ccccc1-c1cc(NN=C(C)c2ccc(C)cc2)ncn1 [Compound 25, N-[6-(2-Methoxy-phenyl)-pyrimidin-4-yl]-N′-[1-p-tolyl-ethylidene]-hydrazine] | < 1000 nM | < 1000 nM | –
5 | CC(=NN(C)c1nc(C(F)(F)F)nc2ccccc12)c1ccc(C)cc1 [Compound 2] | < 1000 nM | < 1000 nM | < 1000 nM
6 | CC(=NN(C)c1cc(-c2ccccc2)nc(C)n1)c1ccc(C)cc1 [Compound 39, N-Methyl-N-(2-methyl-6-phenyl-pyrimidin-4-yl)-N′-[1-p-tolyl-ethylidene]-hydrazine] | < 1000 nM | < 1000 nM | –
7 | COc1ccc(C(C)=NNc2nc(C)nc3ccccc23)cc1 [Compound 4, N-[1-(4-methoxy-phenyl)-ethylidene]-N′-(2-methyl-quinazolin-4-yl)-hydrazine] | 1000 to 15000 nM | 1000 to 15000 nM | –
8 | CC(=NNc1cc(-c2c(C)noc2C)nc(C)n1)c1ccc(N(C)C)cc1 [Compound 10, (4-(1-{[6-(3,5-dimethyl-isoxazol-4-yl)-2-methyl-pyrimidin-4-yl]-hydrazono}-ethyl)-phenyl]-dimethylamine] | < 1000 nM | < 1000 nM | –
9 | CC(=NNc1cc(-c2ccccc2N)nc(C)n1)c1ccc(C)cc1 [Compound 38, 2-(2-Methyl-6-{N′-[1-p-tolyl-ethylidene]-hydrazino}-pyrimidin-4-yl)-phenylamine] | < 1000 nM | < 1000 nM | –
10 | CC(=NNc1nc(C)nc2ccccc12)c1ccc(C)cc1 [Compound 5, N-(2-Methyl-quinazolin-4-yl)-N-(1-p-tolyl-ethylidene)-hydrazine] | 1000 to 15000 nM | 1000 to 15000 nM | –
11 | CC(=O)Nc1ccccc1-c1cc(NN=C(C)c2ccc(C)cc2)nc(C)n1 [Compound 34, N-[2-(2-Methyl-6-{N′-[1-p-tolyl-ethylidene]-hydrazino}-pyrimidin-4-yl)-phenyl]-acetamide] | < 1000 nM | < 1000 nM | –
